According to patent US20250228850A1, “COMBINATION OF A CXCR7 ANTAGONIST WITH AN S1P1 RECEPTOR MODULATOR” (Idorsia Pharmaceuticals Ltd., priority 2019, published 2025):
“Also recorded” adds a separate entry of the source.

Experiments:
[1] = test system: lymphocyte count in peripheral blood; assay: Dose finding of fingolimod in healthy mice, lymphocyte count in peripheral blood; assay type: in vivo, mouse (C57BL/6)
Protocol: In parallel to the measurement of target engagement of COMPOUND, a second pilot experiment is performed. Healthy female C57BL/6 receive fingolimod at different doses in the range from 0.01 to 0.3 mg/kg, once daily (q.d.). The goal is to assess the dose-effect relationship of fingolimod on lymphocyte count in peripheral blood (which is an established biomarker to monitor pharmacological activity of S1P1 receptor modulators) in this strain of mouse over 24 h.

MOG-induced EAE mice [2] = assay: Monotherapy efficacy experiment in MOG-induced EAE model (preventive setting); assay type: in vivo, mouse (C57BL/6)
Protocol: (§1) Female C57BL/6 mice are immunized with an emulsion of MOG in complete Freund's adjuvant (CFA) and pertussis toxin (day 0). A total of 150 μg of MOG is injected per mice at two sites subcutaneously in each flank of the abdomen. Mice are injected intraperitoneally with pertussis toxin a second time, 2 days after the first injection (day 2). Within 9 to 14 days, mice develop signs of paralysis which will be graded on a scale from 0 to 5 assessing the tail and limbs defined as: 0=no clinical sign of EAE, 0.5=end tail paralyzed or one limb weakness, 1=tail paralyzed or two limbs weakness, 1.5=tail paralyzed and one hind limb weakness, 2=tail paralyzed and bilateral partial hind limb paralysis, 2.5=tail paralyzed and unilateral complete hind limb paralysis, 2.75=score of 2.5+unilateral partial hind limb paralysis, 3=complete bilateral hind limb paralysis, 3.25=3+unilateral partial forelimb paralysis, 3.5=3+unilateral complete forelimb paralysis, 4=complete paralysis (moribund) and, 5=death or euthanized.
The disease progression follows a chronic progressive course with no remission.
It consists of four treatment groups: • 1. Vehicle (water) b.i.d., from day 0 • 2.
Clinical scores are assessed on a daily basis and disease development is compared between vehicle-treated mice and mice receiving COMPOUND. The cumulative disease score is calculated for each mouse by summing all the daily clinical scores over the 29-days study period. The experiment is terminated at day 29, 1 to 4 hours post dosing. […] CXCL12 plasma concentrations are determined using a commercial quantikine ELISA mouse CXCL12/SDF1c kit from R&D systems, according to manufacturer's instructions.
Groups of 10 mice are dosed orally starting at the day of disease induction (day 0). It consists of two treatment groups: • 1. Vehicle (0.5% Methylcellulose/0.5% Tween® 80) b.i.d., from day 0 • 2. Fingolimod (0.03 mg/kg) q.d.+Vehicle q.d., from day 0
Clinical scores are assessed on a daily basis and disease development is compared between vehicle-treated mice and mice receiving fingolimod. The cumulative disease score is calculated for each mouse by summing all the daily clinical scores over the 27-days study period. The experiment is terminated at day 27.

MOG-induced EAE mice [3] = assay: Combination efficacy experiment in the MOG-induced EAE model (therapeutic setting); assay type: in vivo, mouse (C57BL/6); settings: for efficacy on the clinical scores of the disease: from day 7 (just before onset), COMPOUND 100 mg/kg b.i.d., fingolimod 0.03 mg/kg q.d., combination effect from day 14 onwards
Protocol: The combination efficacy experiment is performed in the same mouse EAE model as described for the pilot experiments.
Groups of 10 mice are dosed orally starting just before the onset of disease (day 7). It consists of four treatment groups: • 1. Vehicle (0.5% Methylcellulose/0.5% Tween® 80) b.i.d., from day 7 • 2. Fingolimod (0.03 mg/kg) q.d.+Vehicle q.d., from day 7 • 3.
Clinical scores are assessed on a daily basis and disease development is compared between vehicle-treated mice and mice receiving the different treatments. The experiment is terminated at day 16 or day 17. Hematology parameters, including lymphocyte count, are measured at the termination of the experiment. […] CXCL12 plasma concentrations are determined using a commercial quantikine ELISA mouse CXCL12/SDF1c kit from R&D systems, according to manufacturer's instructions.

[4] = test system: cuprizone-induced demyelination mice; assay: Cuprizone-induced demyelination model with cuprizone withdrawal, Experiment 2; assay type: in vivo, mouse (C57BL/6); settings: week 5 to week 7; COMPOUND 100 mg/kg b.i.d., fingolimod 0.3 mg/kg q.d.
Protocol: Male C57BL/6 mice are exposed to a 0.2% cuprizone diet for six weeks and then switched to control food for one more week. Groups of 8-9 mice are dosed orally starting after five weeks of cuprizone exposure. It consists of three treatment groups: • 1. Vehicle (0.5% Methylcellulose/0.5% Tween® 80) b.i.d., from week 5 to week 7 • 2. Fingolimod (0.3 mg/kg) q.d.+Vehicle q.d., from week 5 to week 7 • 3. […] Hematology parameters, including lymphocyte count, are measured at the termination of the experiment, one hour after the last dosing. […] Brain samples are isolated and fixed for histopathological and immunohistochemistry examinations to assess the degree of demyelination (Luxol Fast Blue for myelin staining).

patients = settings: cited from earlier work
[5] = test system: lymphocyte count in peripheral blood; assay: Dose finding of siponimod in healthy SJL/J mice, alone and with COMPOUND; assay type: in vivo, mouse (SJL/J); settings: siponimod 0.3 mg/kg q.d. oral, healthy female SJL/J mice
Protocol: In a pilot experiment, healthy female SJL/J mice are dosed orally for 2 to 3 days with siponimod at different doses in the range from 0.03 to 1 mg/kg, once daily. The goal is to assess the dose-effect relationship of siponimod on lymphocyte count in peripheral blood (which is an established biomarker to monitor pharmacological activity of S1P1 receptor modulators) in this strain of mouse over 24 h.

[6] = test system: CXCL12 in plasma (biomarker of CXCR7 receptor antagonist); assay: Dose finding of COMPOUND in naive mice, CXCL12 elevation in plasma; assay type: in vivo, mouse (C57BL/6); settings: COMPOUND 100 mg/kg b.i.d. oral, 3 days, naive C57BL/6 mice, exposure at trough (14 hours after last dosing), only the highest dose tested
Excerpt: CXCL12 or CXCL11 plasma concentrations may be determined using methods well known in the art, e.g. an Ella® immunoassay (Bio-Techne®), or a commercial quantikine ELISA mouse CXCL12/SDF1α kit from R&D systems.

[7] = test system: cuprizone-induced demyelination mice; assay: Cuprizone-induced demyelination mouse model, Experiment 1; assay type: in vivo, mouse (C57BL/6); settings: 6 weeks
Protocol: Male C57BL/6 mice are exposed to cuprizone (CPZ; 150 mg/kg, b.i.d.), a […] chelating agent which leads to the death of mature oligodendrocytes, by oral gavage twice daily for six weeks. […] The experiment is terminated after 6 weeks of cuprizone exposure. […] CXCL12 plasma concentrations are measured as previously described in example A. Brain samples are isolated and fixed for histopathological and immunohistochemistry examinations to assess the degree of demyelination (Luxol Fast Blue for myelin staining) and the loss of mature oligodendrocytes (GSTiT staining).

PLP-induced EAE mice = assay: Monotherapy efficacy experiment in the PLP-induced EAE model (therapeutic setting); assay type: in vivo, mouse (SJL/J)
Protocol: as §1, with “SJL/J” for “C57BL/6”, “PLP” for “MOG”, “CFA” for “complete Freund's adjuvant (CFA)”, “100” for “150”, “16” for “14”, “euthanized. The disease progression follows a relapsing-remitting course with a first peak of disease occurring three to five days after the onset, followed by a remission phase and a second peak of the disease between 20-30 days after EAE induction.” for “euthanized.”
The study consists of four treatment groups: • 1. Vehicle (water) b.i.d., from disease onset for each mouse • 2.
Clinical scores are assessed on a daily basis, in a blinded manner and disease development is compared between vehicle-treated mice and mice receiving COMPOUND. The cumulative disease score is calculated for each mouse by summing all the daily clinical scores over the 30-days after treatment initiation. […] CXCL12 plasma concentrations are determined as previously described in example A.

[8] = First-in-human single-dose study in healthy male subjects (NCT03869320); assay type: in vivo; settings: male, human, plasma
Protocol: (§2) […] […] In the 30 mg dose level group the effect of food is additionally investigated by administering the same treatment to the same subjects after a standardized high-fat breakfast.

healthy male subjects = assay: as above; assay type: in vivo
Protocol: as §2

[9] = COMPOUND 10, 100, 150 mg/kg b.i.d. from disease onset

Which “lymphocyte count reduction over 24 h” value ([1]; fingolimod 0.03 mg/kg q.d., healthy female C57BL/6) does the source give for `CCCCCCCCc1ccc(CCC(N)(CO)CO)cc1` [fingolimod, 2-amino-2-[2-(4-octylphenyl)ethyl]-propane-1,3-diol, reference compound] here?
Its value is “partial efficacy”.

And the “lymphocyte count reduction over 24 hours” value ([1]; fingolimod 0.3 mg/kg q.d.)?
Its value is “fully efficacious”.

What about the “plasma CXCL12 levels” value (MOG-induced EAE mice [2]; fingolimod 0.03 mg/kg q.d. from day 0) of the same compound?
The value was “not associated with an increase”.

What about the “overall extent of EAE disease, cumulative disease scores over the 27-days study” value (MOG-induced EAE mice [2]; fingolimod 0.03 mg/kg q.d. oral from day 0 (preventive)) of the same compound?
The value was “exhibits efficacy”.

And the “lymphocyte count in peripheral blood” value (MOG-induced EAE mice [3]; fingolimod 0.03 mg/kg q.d. from day 7, at termination)?
Its value is “reduction”.

And the “efficacy on the clinical scores of the disease” value (MOG-induced EAE mice [3])?
Its value is “minimal”.

What about the “spontaneous remyelination in the corpus callosum one week after CPZ withdrawal” value [4] of the same compound?
Its value is “no effect”.

And the “time for lymphocyte counts to return to the normal range after stopping therapy” value (patients; fingolimod, human)?
Its value is 1-2 months.

And the “time remaining in the blood with pharmacodynamic effects (decreased lymphocyte counts) following the last dose” value (patients; fingolimod, human)?
The value was “up to 2 months”.

With `CCc1cc(/C(C)=N/OCc2ccc(C3CCCCC3)c(C(F)(F)F)c2)ccc1CN1CC(C(=O)O)C1` [siponimod, 1-(4-[1-[(E)-4-Cyclohexyl-3-trifluoromethyl-benzyloxyimino]-ethyl]-2-ethyl-benzyl)-azetidine-3-carboxylic acid] as the compound, how does the “lymphocyte count reduction over 24 h” value [5] read?
Its value is “full efficacy”.

And the “persistence of residual pharmacodynamics effects (lowering of peripheral lymphocyte count) after the last dose” value (patients; siponimod, human)?
Its value is 3-4 weeks.

And the “time remaining in the blood after stopping therapy” value (patients; siponimod, human)?
Its value is “up to 10 days”.

What about the “patients whose lymphocyte counts returned to the normal range” value (patients; siponimod, within 10 days of stopping therapy) of the same compound?
Its value is 90 % of patients.

With `O=C(N[C@H]1CCN(CC2CC2)C[C@@H]1C(=O)NC1(c2ncccn2)CC1)c1cc(-c2ccc(F)cc2F)on1` [COMPOUND, (3S,4S)-1-Cyclopropylmethyl-4-{[5-(2,4-difluoro-phenyl)-isoxazole-3-carbonyl]-amino}-piperidine-3-carboxylic acid (1-pyrimidin-2-yl-cyclopropyl)-amide] as the compound, how does the “plasma CXCL12 increase over 24 h” value [6] read?
Its value is “sustain plasma CXCL12 increase over 24 h; also recorded: sustain CXCL12 plasma levels over 24 hours”.

And the “overall burden of EAE disease” value (MOG-induced EAE mice [2]; COMPOUND 100 mg/kg b.i.d., preventive setting)?
The value was “significantly reduces”.

And the “plasma CXCL12 levels” value (MOG-induced EAE mice [2]; COMPOUND 10, 30, 100 mg/kg b.i.d. from day 0, day 29, 1 to 4 hours post dosing)?
The value was “dose-dependent increase”.

What about the “overall extent of EAE disease, mean cumulative disease scores over the 29-days study” value (MOG-induced EAE mice [2]; COMPOUND 10, 30, 100 mg/kg b.i.d. oral from day 0 (preventive)) of the same compound?
The value was “dose-dependent efficacy”.

And the CXCL12 plasma levels (MOG-induced EAE mice [3]; COMPOUND 100 mg/kg b.i.d. from day 7, at termination)?
The CXCL12 plasma levels was “increase”.

What about the “efficacy on the clinical scores of the disease” value (MOG-induced EAE mice [3]) of the same compound?
The value was “moderate”.

And the “mature oligodendrocyte counts in the corpus callosum” value ([7]; COMPOUND 100 mg/kg b.i.d. preventive from day 0 (prev-CPZ))?
Its value is “increased significantly”.

What about the “myelin stain (Luxol Fast Blue) in the corpus callosum” value ([7]; COMPOUND 100 mg/kg b.i.d. preventive, co-administered with cuprizone from day 0 (prev-CPZ)) of the same compound?
The value was “increased significantly”.

What about the “mature oligodendrocyte counts in the corpus callosum” value ([7]; COMPOUND 100 mg/kg b.i.d. therapeutic from week 3 (ther-CPZ)) of the same compound?
Its value is “increased significantly”.

And the “myelin stain (Luxol Fast Blue) in the corpus callosum” value ([7]; COMPOUND 100 mg/kg b.i.d. therapeutic, starting 3 weeks after cuprizone start (ther-CPZ))?
The value was “increased significantly”.

And the “spontaneous remyelination in the corpus callosum one week after CPZ withdrawal” value [4]?
The value was “accelerated significantly”.

And the “CXCL11 plasma levels at trough” value (PLP-induced EAE mice; COMPOUND 100 mg/kg b.i.d.)?
The value was “increases”.

What about the “CXCL12 plasma levels at trough” value (PLP-induced EAE mice; COMPOUND 100 mg/kg b.i.d.) of the same compound?
The value was “increases”.

What about the “clinical scores in the PLP-induced EAE model” value (PLP-induced EAE mice; COMPOUND 100 mg/kg b.i.d.) of the same compound?
Its value is “maximally reduces”.

What about the “plasma CXCL11 levels” value (PLP-induced EAE mice; [9]) of the same compound?
The value was “dose-dependent increase”.

What about the “plasma CXCL12 levels” value (PLP-induced EAE mice; [9]) of the same compound?
Its value is “dose-dependent increase”.

What about the “overall extent of the disease, mean cumulative disease scores over 30 days after treatment initiation” value (PLP-induced EAE mice; COMPOUND 10, 100, 150 mg/kg b.i.d. oral from disease onset (therapeutic)) of the same compound?
The value was “dose-dependent efficacy”.

What about the bioavailability ([8]; iv, i.v. microtracer, 200 mg dose level group, read-out: absolute bioavailability) of the same compound?
The bioavailability was roughly 50%.

And the Tmax ([8]; single oral doses >=10 mg, fasted)?
Its Tmax is 1.3 to 3 h.

And the “food effect on the pharmacokinetics” value (healthy male subjects; 30 mg, standardized high-fat breakfast vs fasted)?
The value was “no relevant food effect”.

And the “dose dependence of plasma CXCL12 concentrations” value (healthy male subjects; 1 to 200 mg single oral dose)?
The value was “dose-dependently increase”.

What about the “exposure increase across the dose range” value (healthy male subjects; 1 to 200 mg single oral dose) of the same compound?
Its value is “essentially dose-proportional”.

What about the CXCL11 concentrations (healthy male subjects; healthy volunteers, single dose) of the same compound?
The CXCL11 concentrations was “essentially unchanged”.

What about the route of excretion (healthy male subjects; oral microtracer, 100 mg dose level group) of the same compound?
The route of excretion was “mainly excreted in feces and to a minor extent in urine”.

What about the “plasma CXCL12 levels compared to baseline” value (healthy male subjects; single oral dose, across tested dose range) of the same compound?
Its value is “approximately 2 fold”.

And the safety and tolerability (healthy male subjects; single oral doses from 1 to 200 mg, healthy male subjects)?
Its safety and tolerability is “safe and well tolerated”.
